# From PubChem BioAssay AID330 (DTP/NCI, 2004)
# “And” between values parts separate entries of the source, which are not always exact repeats. Identical values can stand only once. Inconclusive results and toxic doses are left out.
# Test system: P388 leukemia ip, CD2F1 mice, survival T/C
# Assay: NCI In Vivo Anticancer Drug Screen. Data for tumor model P388 Leukemia (intraperitoneal) in CD2F1 (CDF1) mice
# Conditions: endpoint: median survival time, higher = longer survival
# Description: The antitumor activity of compounds was measured in mice bearing transplantable tumors. Survival or tumor size were measured and the results are expressed as the measurement made in the treated group (T) divided by the measurement made in the vehicle treated control group (C). The tumor model used in this assay is P388 Leukemia (intraperitoneal) in CD2F1 (CDF1) mice
# [1] = dose: 60.0 mg/kg/injection, schedule: Q01DX005 (ip), vehicle: saline with Tween-80
# [2] = dose: 120.0 mg/kg/injection, schedule: Q01DX005 (ip), vehicle: saline with Tween-80
# [3] = dose: 240.0 mg/kg/injection, schedule: Q01DX005 (ip), vehicle: saline with Tween-80
# [4] = dose: 12.5 mg/kg/injection, schedule: Q01DX005 (ip), vehicle: Klucel (hydroxypropylcellulose) (HPC)
# [5] = dose: 50.0 mg/kg/injection, schedule: Q01DX005 (ip), vehicle: Klucel (hydroxypropylcellulose) (HPC)
# [6] = dose: 100.0 mg/kg/injection, schedule: Q01DX005 (ip), vehicle: Klucel (hydroxypropylcellulose) (HPC)
# [7] = dose: 100.0 mg/kg/injection, schedule: Q01DX009 (ip), vehicle: saline with Tween-80
# [8] = dose: 100.0 mg/kg/injection, schedule: Q04DX003 (ip), vehicle: saline with Tween-80
# [9] = dose: 200.0 mg/kg/injection, schedule: Q01DX009 (ip), vehicle: saline with Tween-80
# [10] = dose: 200.0 mg/kg/injection, schedule: Q04DX003 (ip), vehicle: saline with Tween-80
# [11] = dose: 400.0 mg/kg/injection, schedule: Q01DX009 (ip), vehicle: saline with Tween-80
# [12] = dose: 400.0 mg/kg/injection, schedule: Q04DX003 (ip), vehicle: saline with Tween-80
# [13] = dose: 12.5 mg/kg/injection, schedule: Q01DX009 (ip), vehicle: saline with Tween-80
# [14] = dose: 25.0 mg/kg/injection, schedule: Q01DX009 (ip), vehicle: saline with Tween-80
# [15] = dose: 50.0 mg/kg/injection, schedule: Q01DX009 (ip), vehicle: saline with Tween-80
# [16] = dose: 50.0 mg/kg/injection, schedule: Q01DX005 (ip), vehicle: saline with Tween-80
# [17] = dose: 100.0 mg/kg/injection, schedule: Q01DX005 (ip), vehicle: saline with Tween-80
# [18] = dose: 200.0 mg/kg/injection, schedule: Q01DX005 (ip), vehicle: saline with Tween-80
smiles,measurement,setting,value
C=CCN(CC=C)/N=N/c1nc[nH]c1C(N)=O,T/C,"dose: 50.0 mg/kg/injection, schedule: Q01DX001 (ip), vehicle: saline with Tween-80",104 % of control
same,T/C,"dose: 100.0 mg/kg/injection, schedule: Q01DX001 (ip), vehicle: saline with Tween-80",90 % of control
same,T/C,"dose: 200.0 mg/kg/injection, schedule: Q01DX001 (ip), vehicle: saline with Tween-80",95 % of control
CC(=O)Nc1ccc(S(=O)(=O)N/N=C/c2cc([N+](=O)[O-])cc([N+](=O)[O-])c2O)cc1,T/C,[1],106 % of control
same,T/C,[2],104 % of control
same,T/C,[3],104 % of control
CC1(C)COP(Oc2ccccc2)OC1,T/C,"dose: 25.0 mg/kg/injection, schedule: Q01DX009 (ip), vehicle: saline + Tween-80 + alcohol",102 % of control
same,T/C,"dose: 50.0 mg/kg/injection, schedule: Q01DX009 (ip), vehicle: saline + Tween-80 + alcohol",103 % of control
same,T/C,"dose: 100.0 mg/kg/injection, schedule: Q01DX009 (ip), vehicle: saline + Tween-80 + alcohol",100 % of control
same,T/C,"dose: 200.0 mg/kg/injection, schedule: Q01DX009 (ip), vehicle: saline + Tween-80 + alcohol",96 % of control
CCc1c(-c2ccccc2)nc(N(C)C)oc1=O,T/C,[1],106 % of control
same,T/C,[2],100 % of control
same,T/C,[3],98 % of control
O/N=C/c1c(-c2ccccc2)nc2sccn12,T/C,"dose: 100.0 mg/kg/injection, schedule: Q01DX001 (ip), vehicle: Klucel (hydroxypropylcellulose) (HPC)",94 % of control
same,T/C,"dose: 200.0 mg/kg/injection, schedule: Q01DX001 (ip), vehicle: Klucel (hydroxypropylcellulose) (HPC)",86 % of control
same,T/C,"dose: 400.0 mg/kg/injection, schedule: Q01DX001 (ip), vehicle: Klucel (hydroxypropylcellulose) (HPC)",94 % of control
COc1ccc2c(n1)Sc1nc3ccccc3nc1N2,T/C,[1],100 % of control
same,T/C,[2],100 % of control
same,T/C,[3],101 % of control
Cn1c2ccccc2c2cc3c(cc21)C(=O)OC3=O,T/C,"dose: 3.12 mg/kg/injection, schedule: Q01DX005 (ip), vehicle: Klucel (hydroxypropylcellulose) (HPC)",100 % of control
same,T/C,"dose: 6.25 mg/kg/injection, schedule: Q01DX005 (ip), vehicle: Klucel (hydroxypropylcellulose) (HPC)",93 % of control
same,T/C,[4],90 % of control
same,T/C,[5],88 % of control
same,T/C,[6],90 % of control
Cc1ccc(S(=O)(=O)c2cc3ccccc3oc2=O)cc1,T/C,[1],91 % of control
same,T/C,[2],88 % of control
CN(c1ccccc1)c1c(Cl)c(=O)oc2c1ccc1occc12,T/C,"dose: 30.0 mg/kg/injection, schedule: Q01DX005 (ip), vehicle: saline with Tween-80",103 % of control
same,T/C,[1],106 % of control
same,T/C,"dose: 120.0 mg/kg/injection, schedule: Q01DX005 (ip), vehicle: saline",96 % of control
same,T/C,[3],105 % of control
same,T/C,"dose: 240.0 mg/kg/injection, schedule: Q01DX005 (ip), vehicle: saline",103 % of control
CCCCCCCCCCCCCCCCCCCCCC(O)(CC)CC,T/C,[7],100 % of control
same,T/C,[8],100 % of control
same,T/C,[9],109 % of control
same,T/C,[10],100 % of control
same,T/C,[11],100 % of control
same,T/C,[12],110 % of control
Cc1ccc(NC(=S)NCCc2ccccn2)cc1C,T/C,[13],94 % of control
same,T/C,[14],94 % of control
same,T/C,[15],93 % of control
same,T/C,[7],99 % of control and 92 % of control
same,T/C,[9],100 % of control
same,T/C,[11],105 % of control
CNC(=O)c1ccccc1NC(=O)CCC(=O)O,T/C,"dose: 100.0 mg/kg/injection, schedule: Q04DX003 (ip), vehicle: saline",100 % of control
same,T/C,"dose: 200.0 mg/kg/injection, schedule: Q04DX003 (ip), vehicle: saline",99 % of control
same,T/C,"dose: 400.0 mg/kg/injection, schedule: Q04DX003 (ip), vehicle: saline",100 % of control
CCC/C=C/C=C/C(=O)OC1C(C)C2(O)C3C=C(C)C(=O)C3CC(COC(C)=O)=CC2C2C(C)(C)C12OC(=O)C(C)C (stereo unspecified),T/C,"dose: 0.12 mg/kg/injection, schedule: Q01DX009 (ip), vehicle: Klucel (hydroxypropylcellulose) (HPC)",111 % of control
same,T/C,"dose: 0.25 mg/kg/injection, schedule: Q01DX009 (ip), vehicle: Klucel (hydroxypropylcellulose) (HPC)",103 % of control
same,T/C,"dose: 0.5 mg/kg/injection, schedule: Q01DX009 (ip), vehicle: Klucel (hydroxypropylcellulose) (HPC)",107 % of control
same,T/C,"dose: 1.0 mg/kg/injection, schedule: Q01DX005 (ip), vehicle: distilled water + Tween-80",109 % of control and 113 % of control
same,T/C,"dose: 1.0 mg/kg/injection, schedule: Q01DX009 (ip), vehicle: Klucel (hydroxypropylcellulose) (HPC)",106 % of control
same,T/C,"dose: 2.0 mg/kg/injection, schedule: Q01DX005 (ip), vehicle: distilled water + Tween-80",121 % of control and 123 % of control
same,T/C,"dose: 2.0 mg/kg/injection, schedule: Q01DX005 (ip), vehicle: saline + alcohol",115 % of control
same,T/C,"dose: 4.0 mg/kg/injection, schedule: Q01DX005 (ip), vehicle: saline + alcohol",123 % of control
CC1CCC(C(=O)C2CCCCC2CC2CCCCC2)CC1 (stereo unspecified),T/C,[16],105 % of control
same,T/C,[17],102 % of control
same,T/C,[18],96 % of control
O=C1OC(C(Cl)(Cl)Cl)Nc2ccccc21 (stereo unspecified),T/C,[5],111 % of control
same,T/C,[6],111 % of control
Clc1ccc(CN2COc3c(ccc4cccnc34)C2)c(Cl)c1,T/C,"dose: 100.0 mg/kg/injection, schedule: Q04DX003 (ip), vehicle: Klucel (hydroxypropylcellulose) (HPC)",95 % of control
same,T/C,"dose: 200.0 mg/kg/injection, schedule: Q04DX003 (ip), vehicle: Klucel (hydroxypropylcellulose) (HPC)",104 % of control
same,T/C,"dose: 400.0 mg/kg/injection, schedule: Q04DX003 (ip), vehicle: Klucel (hydroxypropylcellulose) (HPC)",117 % of control
COc1cc(Cl)c(CC(=O)c2c[nH]c3ccccc23)cc1OC,T/C,"dose: 6.25 mg/kg/injection, schedule: Q01DX009 (ip), vehicle: saline with Tween-80",94 % of control
same,T/C,[13],92 % of control
same,T/C,[14],100 % of control
same,T/C,[15],93 % of control
Cc1noc(NS(=O)(=O)c2ccc(N=Nc3cc(N=Nc4ccc(S(=O)(=O)Nc5onc(C)c5C)cc4)c4c(NC(=O)C(Cl)Cl)cccc4c3O)cc2)c1C (tested in a mixture with another compound),T/C,[16],117 % of control and 118 % of control
O=[N+]([O-])c1ccc(C2=C[P+](c3ccccc3)(c3ccccc3)C=C(c3ccccc3)O2)cc1,T/C,"dose: 1.5 mg/kg/injection, schedule: Q01DX005 (ip), vehicle: saline with Tween-80",115 % of control
same,T/C,"dose: 1.5 mg/kg/injection, schedule: Q01DX005 (ip), vehicle: saline",117 % of control
same,T/C,"dose: 3.0 mg/kg/injection, schedule: Q01DX005 (ip), vehicle: saline with Tween-80",113 % of control
same,T/C,"dose: 3.0 mg/kg/injection, schedule: Q01DX005 (ip), vehicle: saline",124 % of control
CC([NH-])C[NH-].[Cl][Pt+2][Cl] (stereo unspecified),T/C,"dose: 3.12 mg/kg/injection, schedule: Q01DX001 (ip), vehicle: Klucel (hydroxypropylcellulose) (HPC)",157 % of control
same,T/C,"dose: 12.5 mg/kg/injection, schedule: Q01DX001 (ip), vehicle: Klucel (hydroxypropylcellulose) (HPC)",163 % of control
CN(C)Cc1cn(C[Si](C)(C)C)c2ccccc12,T/C,[1],112 % of control
CSC(=S)N/N=C(\C)c1ccccn1,T/C,"dose: 50.0 mg/kg/injection, schedule: Q01DX009 (ip), vehicle: saline",92 % of control
same,T/C,"dose: 100.0 mg/kg/injection, schedule: Q01DX009 (ip), vehicle: saline",92 % of control
same,T/C,"dose: 200.0 mg/kg/injection, schedule: Q01DX009 (ip), vehicle: saline",99 % of control
same,T/C,"dose: 400.0 mg/kg/injection, schedule: Q01DX009 (ip), vehicle: saline",106 % of control
CC1CN1P(=S)(Oc1ccccc1)N1CC1C (stereo unspecified),T/C,[7],110 % of control
same,T/C,[8],109 % of control
same,T/C,[10],118 % of control
same,T/C,[12],122 % of control
C=C1CC2(CCCC(=O)C2)OC1=O (stereo unspecified),T/C,[4],97 % of control
same,T/C,"dose: 25.0 mg/kg/injection, schedule: Q01DX005 (ip), vehicle: Klucel (hydroxypropylcellulose) (HPC)",101 % of control
same,T/C,[5],99 % of control and 101 % of control
CC(C)(Sc1ccc(Cl)cc1)C(=O)OCCN1CCCCC1,T/C,[1],91 % of control
same,T/C,[2],92 % of control
same,T/C,[3],92 % of control
COc1ccc(/C=C2/Oc3c(OC)c(OC)cc(OC)c3C2=O)cc1,T/C,[16],102 % of control
same,T/C,[17],98 % of control
same,T/C,[18],98 % of control
